Reference: US20250163119A1, “COMPOUNDS FOR THE TREATMENT OF DIABETES OR OBESITY” (Eli Lilly and Company, priority 2023, published 2025)
*1 amine or outer side, *2 acyl side, *3 side chain or, on linkers, in order; H or OH if unused. Where a SMILES comes first, the peptide text is derived from it. Side-chain parts run from the residue outwards. [ ]: non-standard residue; d: D form. The star is where a group is joined. C20 diacid = O=C(O)CCCCCCCCCCCCCCCCCCC(=O)*; C18 diacid = O=C(O)CCCCCCCCCCCCCCCCC(=O)*; γGlu = O=C(O)[C@H](CCC(=O)[*:2])N[*:1]; εLys = N[C@@H](CCCCN[*:1])C(=O)[*:2]; αMeL = CC(C)C[C@](C)(N)C(=O)O; AEEA = NCCOCCOCC(=O)O; Aib = CC(C)(N)C(=O)O; Ahx = NCCCCCC(=O)O

How the values were obtained:
[1] = target: T1, human CRHR2 (Homo sapiens, UniProt Q13324); test: Human CRHR2 cAMP assay (HTRF) in HEK293 cells stably expressing human CRHR2; assay type: cell-based; conditions: HEK293 cells overexpressing human CRHR2; relative EC50, maximum 10 nM human UCN2; mean ± SE; read-out: hCRHR2 cAMP EC50 (pM, ± SE)
T1 construct: expressed in transfected cells
T1 sequence (Q13324 1-438 isoform Q13324-2): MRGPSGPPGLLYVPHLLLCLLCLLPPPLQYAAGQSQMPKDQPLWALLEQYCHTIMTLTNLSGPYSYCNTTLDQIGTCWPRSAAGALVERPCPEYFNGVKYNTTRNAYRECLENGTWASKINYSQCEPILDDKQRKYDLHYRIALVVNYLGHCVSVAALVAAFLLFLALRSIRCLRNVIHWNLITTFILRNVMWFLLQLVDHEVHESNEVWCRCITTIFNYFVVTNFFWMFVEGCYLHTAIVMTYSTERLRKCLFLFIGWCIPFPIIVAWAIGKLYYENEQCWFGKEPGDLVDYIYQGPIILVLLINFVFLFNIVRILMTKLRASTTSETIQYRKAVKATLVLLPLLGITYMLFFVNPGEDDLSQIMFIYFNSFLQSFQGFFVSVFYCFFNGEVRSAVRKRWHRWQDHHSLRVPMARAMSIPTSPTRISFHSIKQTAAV
How it was run: (§1)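 HEK293 cells stably expressing human CRHR1 (25,000/well) or CRHR2b (5,000/well) were treated with peptides in MEM with 0.1% casein, 5 mM HEPES pH 7.4 and 0.25 mM IBMX. Incubation was 1 h at 37 °C for CRHR1 and 30 min at room temperature for CRHR2. cAMP was measured by HTRF (665/620 nm) against a per-experiment cAMP standard curve.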

[2] = target: T2, human CRHR1 (Homo sapiens, UniProt P34998); test: Human CRHR1 cAMP assay (HTRF) in HEK293 cells stably expressing human CRHR1; assay type: cell-based; conditions: HEK293 cells overexpressing human CRHR1; relative EC50, maximum 66 nM human UCN1; mean ± SE; read-out: hCRHR1 cAMP EC50 (pM, ± SE)
T2 construct: expressed in transfected cells
T2 sequence (P34998 24-415): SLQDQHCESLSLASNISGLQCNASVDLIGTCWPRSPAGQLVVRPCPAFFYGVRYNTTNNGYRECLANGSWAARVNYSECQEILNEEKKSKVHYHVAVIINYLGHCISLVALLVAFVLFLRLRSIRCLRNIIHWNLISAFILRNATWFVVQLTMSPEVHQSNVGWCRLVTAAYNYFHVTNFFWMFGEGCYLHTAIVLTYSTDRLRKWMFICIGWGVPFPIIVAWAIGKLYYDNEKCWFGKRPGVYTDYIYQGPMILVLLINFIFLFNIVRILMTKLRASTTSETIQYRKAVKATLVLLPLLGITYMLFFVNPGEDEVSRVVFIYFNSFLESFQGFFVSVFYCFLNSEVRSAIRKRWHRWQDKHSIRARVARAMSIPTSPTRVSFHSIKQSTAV
How it was run: as §1

| Molecule | EC50 [1] [pM] | EC50 [2] [pM] |
| --- | --- | --- |
| CC[C@H](C)[C@H](NC(C)=O)C(=O)N[C@H](C(=O)N[C@H](C(=O)N[C@@H](CO)C(=O)N[C@@](C)(CC(C)C)C(=O)N[C@@H](CC(=O)O)C(=O)N[C@@H](C(=O)N1CCC[C@H]1C(=O)N[C@H](C(=O)NCC(=O)N[C@@](C)(CC(C)C)C(=O)N[C@@H](CC(C)C)C(=O)N[C@@H](CCC(N)=O)C(=O)N[C@H](C(=O)N[C@@H](CCCCN)C(=O)N[C@@H](CC(C)C)C(=O)N[C@@H](CCC(=O)O)C(=O)N[C@@H](CCC(N)=O)C(=O)N[C@@H](CCC(=O)O)C(=O)N[C@@H](CCCNC(=N)N)C(=O)N[C@@H](C)C(=O)N[C@@H](CCC(=O)O)C(=O)N[C@@H](CCCCN)C(=O)N[C@@H](C)C(=O)N[C@@H](CCCNC(=N)N)C(=O)N[C@@H](CCC(N)=O)C(=O)N[C@@H](CCC(N)=O)C(=O)N[C@@H](C)C(=O)N[C@@H](CCCCNC(=O)COCCOCCNC(=O)[C@@H](N)CCCCNC(=O)CC[C@H](NC(=O)CCCCCCCCCCCCCCCCCCC(=O)O)C(=O)O)C(=O)N[C@@H](CCC(=O)O)C(=O)N[C@@H](CC(N)=O)C(=O)N[C@H](C(=O)N[C@@H](CCC(=O)O)C(=O)N[C@H](C(=O)N[C@@H](CC(C)C)C(=O)N[C@@H](C)C(=O)N[C@@H](CCC(N)=O)C(=O)N[C@H](C(N)=O)C(C)C)[C@@H](C)CC)[C@@H](C)O)[C@@H](C)CC)[C@@H](C)O)C(C)C)[C@@H](C)O)C(C)C [SEQ ID NO: 32, Ac-IVTS αMeL D (D-Val) PTG αMeL LQIKLEQERAEKARQQAK((2-[2-(2-Amino-ethoxy)-ethoxy]-acetyl)-ϵK-γE-CO-(CH2)18-CO2H)ENTEILAQV-NH2] (Ac-IVTS[αMeL]D[dV]PTG[αMeL]LQIKLEQERAEKARQQAK([AEEA-εLys-γGlu-C20 diacid])ENTEILAQV-NH2) | 5.4 ± 0.7 | > 1e+07 |
| CC[C@H](C)[C@H](NC(C)=O)C(=O)N[C@H](C(=O)N[C@H](C(=O)N[C@@H](CO)C(=O)N[C@@](C)(CC(C)C)C(=O)N[C@@H](CC(=O)O)C(=O)N[C@@H](C(=O)N1CCC[C@H]1C(=O)N[C@H](C(=O)NCC(=O)N[C@@](C)(CC(C)C)C(=O)N[C@@H](CC(C)C)C(=O)N[C@@H](CCC(N)=O)C(=O)N[C@H](C(=O)N[C@@H](CCCCN)C(=O)N[C@@H](CC(C)C)C(=O)N[C@@H](CCC(=O)O)C(=O)N[C@@H](CCC(N)=O)C(=O)N[C@@H](CCC(=O)O)C(=O)N[C@@H](CCCNC(=N)N)C(=O)N[C@@H](C)C(=O)N[C@@H](CCC(=O)O)C(=O)N[C@@H](CCCCN)C(=O)N[C@@H](C)C(=O)N[C@@H](CCCNC(=N)N)C(=O)N[C@@H](CCC(N)=O)C(=O)N[C@@H](CCC(N)=O)C(=O)N[C@@H](C)C(=O)N[C@@H](CCCCNC(=O)CC[C@H](NC(=O)[C@@H](N)CCCCNC(=O)CC[C@H](NC(=O)CCCCCCCCCCCCCCCCCCC(=O)O)C(=O)O)C(=O)O)C(=O)N[C@@H](CCC(=O)O)C(=O)N[C@@H](CC(N)=O)C(=O)N[C@H](C(=O)N[C@@H](CCC(=O)O)C(=O)N[C@H](C(=O)N[C@@H](CC(C)C)C(=O)N[C@@H](C)C(=O)N[C@@H](CCC(N)=O)C(=O)N[C@H](C(N)=O)C(C)C)[C@@H](C)CC)[C@@H](C)O)[C@@H](C)CC)[C@@H](C)O)C(C)C)[C@@H](C)O)C(C)C [SEQ ID NO: 39, Ac-IVTS αMeL D (D-Val) PTG αMeL LQIKLEQERAEKARQQAK(γE-ϵK-γE-CO-(CH2)18-CO2H)ENTEILAQV-NH2] (Ac-IVTS[αMeL]D[dV]PTG[αMeL]LQIKLEQERAEKARQQAK([γGlu-εLys-γGlu-C20 diacid])ENTEILAQV-NH2) | 7.3 ± 0.8 | 3.7e+06 |
| CC[C@H](C)[C@H](NC(C)=O)C(=O)N[C@H](C(=O)N[C@H](C(=O)N[C@@H](CO)C(=O)N[C@@](C)(CC(C)C)C(=O)N[C@@H](CC(=O)O)C(=O)N[C@@H](C(=O)N1CCC[C@H]1C(=O)N[C@H](C(=O)NCC(=O)N[C@@](C)(CC(C)C)C(=O)N[C@@H](CC(C)C)C(=O)N[C@@H](CCC(N)=O)C(=O)N[C@H](C(=O)N[C@@H](CCCCN)C(=O)N[C@@H](CC(C)C)C(=O)N[C@@H](CCC(=O)O)C(=O)N[C@@H](CCC(N)=O)C(=O)N[C@@H](CCC(=O)O)C(=O)N[C@@H](CCCNC(=N)N)C(=O)N[C@@H](C)C(=O)N[C@@H](CCC(=O)O)C(=O)N[C@@H](CCCCN)C(=O)N[C@@H](C)C(=O)N[C@@H](CCCNC(=N)N)C(=O)N[C@@H](CCC(N)=O)C(=O)N[C@@H](CCC(N)=O)C(=O)N[C@@H](C)C(=O)N[C@@H](CCCCNC(=O)CC[C@H](NC(=O)CC[C@H](NC(=O)COCCOCCNC(=O)CCCCCCCCCCCCCCCCCCC(=O)O)C(=O)O)C(=O)O)C(=O)N[C@@H](CCC(=O)O)C(=O)N[C@@H](CC(N)=O)C(=O)N[C@H](C(=O)N[C@@H](CCC(=O)O)C(=O)N[C@H](C(=O)N[C@@H](CC(C)C)C(=O)N[C@@H](C)C(=O)N[C@@H](CCC(N)=O)C(=O)N[C@H](C(N)=O)C(C)C)[C@@H](C)CC)[C@@H](C)O)[C@@H](C)CC)[C@@H](C)O)C(C)C)[C@@H](C)O)C(C)C [SEQ ID NO: 31, Ac-IVTS αMeL D (D-Val) PTG αMeL LQIKLEQERAEKARQQAK((γE)2-(2-[2-(2-Amino-ethoxy)-ethoxy]-acetyl)-CO-(CH2)18-CO2H)ENTEILAQV-NH2] (Ac-IVTS[αMeL]D[dV]PTG[αMeL]LQIKLEQERAEKARQQAK([γGlu-γGlu-AEEA-C20 diacid])ENTEILAQV-NH2) | 4.5 ± 0.7 | > 1e+07 |
| CC[C@H](C)[C@H](NC(C)=O)C(=O)N[C@H](C(=O)N[C@H](C(=O)N[C@@H](CO)C(=O)N[C@@](C)(CC(C)C)C(=O)N[C@@H](CC(=O)O)C(=O)N[C@@H](C(=O)N1CCC[C@H]1C(=O)N[C@H](C(=O)NCC(=O)N[C@@](C)(CC(C)C)C(=O)N[C@@H](CC(C)C)C(=O)N[C@@H](CCC(N)=O)C(=O)N[C@H](C(=O)N[C@@H](CCCCN)C(=O)N[C@@H](CC(C)C)C(=O)N[C@@H](CCC(=O)O)C(=O)N[C@@H](CCC(N)=O)C(=O)N[C@@H](CCC(=O)O)C(=O)N[C@@H](CCCNC(=N)N)C(=O)N[C@@H](C)C(=O)N[C@@H](CCC(=O)O)C(=O)N[C@@H](CCCCN)C(=O)N[C@@H](C)C(=O)N[C@@H](CCCNC(=N)N)C(=O)N[C@@H](CCC(N)=O)C(=O)N[C@@H](CCC(N)=O)C(=O)N[C@@H](C)C(=O)N[C@@H](CCCCNC(=O)CNC(=O)[C@H](CCCCN)NC(=O)[C@H](CCC(=O)O)NC(=O)[C@H](CCCCN)NC(=O)[C@H](CCC(=O)O)NC(=O)[C@H](CCCCN)NC(=O)[C@H](CCC(=O)O)NC(=O)CC[C@H](NC(=O)CCCCCCCCCCCCCCCCCCC(=O)O)C(=O)O)C(=O)N[C@@H](CCC(=O)O)C(=O)N[C@@H](CC(N)=O)C(=O)N[C@H](C(=O)N[C@@H](CCC(=O)O)C(=O)N[C@H](C(=O)N[C@@H](CC(C)C)C(=O)N[C@@H](C)C(=O)N[C@@H](CCC(N)=O)C(=O)N[C@H](C(N)=O)C(C)C)[C@@H](C)CC)[C@@H](C)O)[C@@H](C)CC)[C@@H](C)O)C(C)C)[C@@H](C)O)C(C)C [SEQ ID NO: 43, Ac-IVTS αMeL D (D-Val) PTG αMeL LQIKLEQERAEKARQQAK(GKEKEKE-γE-CO-(CH2)18-CO2H)ENTEILAQV-NH2] | 7.9 ± 1.3 | > 1e+07 |

Second part, the molecule after the results:

| EC50 [1] [pM] | EC50 [2] [pM] | Molecule |
| --- | --- | --- |
| 11.1 ± 0.5 | > 1e+07 | Ac-GSPSIVTS[αMeL]DVPT[Aib][αMeL]LQKILEQERAEKARQQAK([γGlu-εLys-AEEA-εLys-C20 diacid])EAAEILAQV-NH2 [SEQ ID NO: 19, Ac-GSPSIVTS αMeL DVPT Aib αMeL LQKILEQERAEKARQQAK(γE-EK-(2-[2-(2-Amino-ethoxy)-ethoxy]-acetyl)-ϵK-CO-(CH2)18-CO2H)EAAEILAQV-NH2] |
| 12.8 ± 2 | > 1e+07 | {C18 diacid-εLys-AEEA-γGlu}-GSPSIVTS[αMeL]DVPT[Aib][αMeL]LQKILEQERAEKARQQATEAAEILAQV-NH2 [SEQ ID NO: 28] |
| 8.3 ± 1.4 | > 1e+07 | Ac-GSPSIVTS[αMeL]DVPT[Aib][αMeL]LQKILEQERAEKARQQAK([γGlu-Pro-Lys-Glu-Ahx-C20 diacid])EAAEILAQV-NH2 [SEQ ID NO: 11, Ac-GSPSIVTS αMeL DVPT Aib αMeL LQKILEQERAEKARQQAK(γE-PKE-Ahx-CO-(CH2)18-CO2H)EAAEILAQV-NH2] |
